# Legend:
# [1] = test system: CDK12/13; test: Immunoblotting of CDK12 and CDK13 in MDA-MB-436 cells; format: cell-based, human; details: increasing concentrations, 15 h
# Procedure: (§1) To further characterize the compound, we determined the half-degradation concentration (DC50) values of ZLC491 in MDA-MB-231 cells. […] We also treated MDA-MB-231 cells with 1 μM ZLC491 at various time points.
# (§2) (A) Immunoblotting of CDK12 and CDK13 in MDA-MB-231 cells treated with increasing concentrations of ZLC491 for 15 h (left). Percent remaining CDK12 and CDK13 proteins were plotted for DC50 determination (right). Protein levels were quantified using ImageJ and normalized to corresponding α-tubulin, then plotted using Graphpad Prism 8.0. The data were representative of three independent experiments; (B) immunoblotting of CDK12 and CDK13 proteins in MDA-MB-231 cells treated with ZLC491 for various time points; immunoblotting of CDK12 and CDK13 in HCC38 (C) and MDA-MB-436 (D) cells treated with increasing concentrations of ZLC491 for 15 h. α-Tubulin was used as a loading control. TEXT PRINTED IN THE PICTURE: (A) ZLC491: MDA-MB-231: CDK12 DC50 = 0.032μM; MDA-MB-231: CDK13 DC50 = 0.028μM DOUBTS OF THE COPYIST ABOUT THIS PICTURE: ZLC491, CDK12 DC50: 0.032 read from small print, the digits 3 and 2 are uncertain / ZLC491, CDK13 DC50: 0.028 read from small print, the last digit may be 8, 6 or 3 […]
# [2] = test system: CDK12/13; test: Immunoblotting of CDK12/13 in MDA-MB-231 cells (time course, negative control, series comparison); format: cell-based, human; details: 1 μM
# Procedure: as §1
# (A) Immunoblotting of CDK12 and CDK13 in MDA-MB-231 cells treated with increasing concentrations of ZLC491 for 15 h (left). Percent remaining CDK12 and CDK13 proteins were plotted for DC50 determination (right). Protein levels were quantified using ImageJ and normalized to corresponding α-tubulin, then plotted using Graphpad Prism 8.0. The data were representative of three independent experiments; (B) immunoblotting of CDK12 and CDK13 proteins in MDA-MB-231 cells treated with ZLC491 for various time points; immunoblotting of CDK12 and CDK13 in HCC38 (C) and MDA-MB-436 (D) cells treated with increasing concentrations of ZLC491 for 15 h. α-Tubulin was used as a loading control. TEXT PRINTED IN THE PICTURE: (A) ZLC491: MDA-MB-231: CDK12 DC50 = 0.032μM; MDA-MB-231: CDK13 DC50 = 0.028μM DOUBTS OF THE COPYIST ABOUT THIS PICTURE: ZLC491, CDK12 DC50: 0.032 read from small print, the digits 3 and 2 are uncertain / ZLC491, CDK13 DC50: 0.028 read from small print, the last digit may be 8, 6 or 3
# Figure 4 ZLC491 induced CDK12/13 degradation in a CRBN- and proteasome-dependent fashion. […]
# [3] = test system: DDR proteins (BRCA1, RAD51, ATM); test: Immunoblotting of DDR proteins in MDA-MB-231 cells; format: cell-based, human; details: MDA-MB-231, different doses, 48 h
# Procedure: We next evaluated the effect of ZLC491 on the expression of DDR genes regulated by CDK12/13.
# (A) Transcription level of DDR genes in MDA-MB-231 cells determined by RT-qPCR upon the treatment with vehicle or ZLC491 at different doses for 12 h, ROR1 was used as a negative control; (B) immunoblotting of DDR proteins in MDA-MB-231 cells after the treatment of ZLC491 at different doses for 48 h; (C) cell antiproliferative activity of ZLC491 in multiple TNBC cells as well as several noncancerous cells. Cells were treated with the compound for 5 days; (D,E) antiproliferative potency of cisplatin or olaparib alone or combined with ZLC491 at different doses in MDA-MB-231 cells for 5 days. Data are plotted using the percentage of absorbance relative to DMSO controls. (F) IC50 values and combination index (CI) in drug combination assay. In this model, CI scores estimate the interaction between the two drugs. If CI < 1, the drugs have a synergistic effect and if CI > 1, the drugs have an antagonistic effect. CI = 1 means the drugs have an additive effect. ^aThe drug combination in the table refers to the starting concentration of the two combined drugs, that would both go through serial dilution when treating cells. […]
# [4] = target: CDK12 (Homo sapiens, UniProt Q9NYV4); test: CDK12 degradation in MDA-MB-231 cells by immunoblotting; format: cell-based; design: Immunoblotting of CDK12 and CDK13 in MDA-MB-231 cells treated with increasing concentrations of ZLC491 for 15 h; endogenous in cells; host or cells: MDA-MB-231
# Sequence of CDK12 (Q9NYV4 whole entry): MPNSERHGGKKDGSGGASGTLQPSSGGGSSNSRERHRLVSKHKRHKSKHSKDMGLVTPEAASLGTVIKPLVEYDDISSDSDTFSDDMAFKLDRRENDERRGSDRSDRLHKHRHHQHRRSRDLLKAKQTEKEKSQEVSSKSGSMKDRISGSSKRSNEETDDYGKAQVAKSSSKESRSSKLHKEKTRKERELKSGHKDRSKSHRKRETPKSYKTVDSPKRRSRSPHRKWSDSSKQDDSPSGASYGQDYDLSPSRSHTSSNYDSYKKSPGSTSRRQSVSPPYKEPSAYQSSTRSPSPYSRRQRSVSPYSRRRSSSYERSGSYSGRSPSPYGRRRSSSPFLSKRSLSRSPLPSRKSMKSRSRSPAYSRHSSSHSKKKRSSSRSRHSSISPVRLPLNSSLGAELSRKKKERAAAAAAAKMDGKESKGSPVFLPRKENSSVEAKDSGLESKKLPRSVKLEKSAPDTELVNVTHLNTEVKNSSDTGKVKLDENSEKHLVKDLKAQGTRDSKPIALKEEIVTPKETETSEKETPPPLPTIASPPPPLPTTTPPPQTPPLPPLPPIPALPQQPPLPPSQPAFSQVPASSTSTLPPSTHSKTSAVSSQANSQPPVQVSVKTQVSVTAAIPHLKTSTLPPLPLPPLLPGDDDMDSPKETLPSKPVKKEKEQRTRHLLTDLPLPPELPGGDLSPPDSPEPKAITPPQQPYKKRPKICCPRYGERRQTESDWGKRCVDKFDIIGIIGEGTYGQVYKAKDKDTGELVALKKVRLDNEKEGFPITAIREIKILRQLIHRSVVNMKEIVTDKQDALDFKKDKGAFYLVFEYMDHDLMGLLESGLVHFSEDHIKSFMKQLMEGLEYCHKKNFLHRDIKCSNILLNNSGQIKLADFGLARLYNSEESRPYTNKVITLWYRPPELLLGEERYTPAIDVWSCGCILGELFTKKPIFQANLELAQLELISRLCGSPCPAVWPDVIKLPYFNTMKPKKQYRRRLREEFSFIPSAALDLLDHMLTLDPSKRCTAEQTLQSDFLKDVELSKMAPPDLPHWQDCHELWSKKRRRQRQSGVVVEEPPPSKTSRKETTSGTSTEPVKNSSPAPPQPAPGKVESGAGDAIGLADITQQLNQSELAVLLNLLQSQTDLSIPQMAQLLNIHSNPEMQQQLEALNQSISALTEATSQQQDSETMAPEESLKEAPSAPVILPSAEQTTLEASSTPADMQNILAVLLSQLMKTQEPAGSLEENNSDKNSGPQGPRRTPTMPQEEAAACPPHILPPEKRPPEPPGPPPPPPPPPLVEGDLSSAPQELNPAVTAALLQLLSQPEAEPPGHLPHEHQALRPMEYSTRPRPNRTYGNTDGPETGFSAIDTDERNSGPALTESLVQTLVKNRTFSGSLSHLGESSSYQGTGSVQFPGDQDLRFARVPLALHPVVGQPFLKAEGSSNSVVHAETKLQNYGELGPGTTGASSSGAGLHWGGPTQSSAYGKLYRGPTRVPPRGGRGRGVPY
# Sequence of CDK12 (O75909 whole entry partner): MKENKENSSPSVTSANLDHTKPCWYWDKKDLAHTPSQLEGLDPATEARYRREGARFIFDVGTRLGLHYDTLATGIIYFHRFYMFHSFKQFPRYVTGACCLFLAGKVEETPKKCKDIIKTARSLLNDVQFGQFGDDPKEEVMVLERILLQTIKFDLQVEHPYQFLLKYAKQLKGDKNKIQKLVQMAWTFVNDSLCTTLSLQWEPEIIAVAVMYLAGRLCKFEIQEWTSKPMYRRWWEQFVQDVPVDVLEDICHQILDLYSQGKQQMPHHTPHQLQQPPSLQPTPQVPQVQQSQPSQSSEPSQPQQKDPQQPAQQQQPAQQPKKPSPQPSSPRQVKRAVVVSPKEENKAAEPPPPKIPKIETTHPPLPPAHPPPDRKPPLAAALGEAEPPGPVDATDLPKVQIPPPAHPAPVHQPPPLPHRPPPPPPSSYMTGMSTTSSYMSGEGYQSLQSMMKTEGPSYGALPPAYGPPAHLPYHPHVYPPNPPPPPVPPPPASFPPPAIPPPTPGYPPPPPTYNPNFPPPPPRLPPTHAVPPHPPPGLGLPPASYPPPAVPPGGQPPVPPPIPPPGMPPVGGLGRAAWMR
# Procedure, shortened: (§3)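 MDA-MB-231 cells treated with ZLC491 at increasing concentrations for 15 h (screening at 0.3 μM; time course at 1 μM); SDS lysates immunoblotted, band intensities normalised to α-tubulin. DC50 taken from percent remaining protein versus concentration; representative of three independent experiments.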
# [5] = target: T1, CDK13 (Homo sapiens, UniProt Q14004); test: CDK13 degradation in MDA-MB-231 cells by immunoblotting; format: cell-based;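 as to Protein Degradation (%DMSO control, 0.3 μM) CDK13: percent of CDK13 protein degraded relative to DMSO control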
# T1 construct: Immunoblotting of CDK12 and CDK13 in MDA-MB-231 cells treated with increasing concentrations of ZLC491 for 15 h; endogenous in cells; host or cells: MDA-MB-231
# T1 sequence (Q14004 whole entry): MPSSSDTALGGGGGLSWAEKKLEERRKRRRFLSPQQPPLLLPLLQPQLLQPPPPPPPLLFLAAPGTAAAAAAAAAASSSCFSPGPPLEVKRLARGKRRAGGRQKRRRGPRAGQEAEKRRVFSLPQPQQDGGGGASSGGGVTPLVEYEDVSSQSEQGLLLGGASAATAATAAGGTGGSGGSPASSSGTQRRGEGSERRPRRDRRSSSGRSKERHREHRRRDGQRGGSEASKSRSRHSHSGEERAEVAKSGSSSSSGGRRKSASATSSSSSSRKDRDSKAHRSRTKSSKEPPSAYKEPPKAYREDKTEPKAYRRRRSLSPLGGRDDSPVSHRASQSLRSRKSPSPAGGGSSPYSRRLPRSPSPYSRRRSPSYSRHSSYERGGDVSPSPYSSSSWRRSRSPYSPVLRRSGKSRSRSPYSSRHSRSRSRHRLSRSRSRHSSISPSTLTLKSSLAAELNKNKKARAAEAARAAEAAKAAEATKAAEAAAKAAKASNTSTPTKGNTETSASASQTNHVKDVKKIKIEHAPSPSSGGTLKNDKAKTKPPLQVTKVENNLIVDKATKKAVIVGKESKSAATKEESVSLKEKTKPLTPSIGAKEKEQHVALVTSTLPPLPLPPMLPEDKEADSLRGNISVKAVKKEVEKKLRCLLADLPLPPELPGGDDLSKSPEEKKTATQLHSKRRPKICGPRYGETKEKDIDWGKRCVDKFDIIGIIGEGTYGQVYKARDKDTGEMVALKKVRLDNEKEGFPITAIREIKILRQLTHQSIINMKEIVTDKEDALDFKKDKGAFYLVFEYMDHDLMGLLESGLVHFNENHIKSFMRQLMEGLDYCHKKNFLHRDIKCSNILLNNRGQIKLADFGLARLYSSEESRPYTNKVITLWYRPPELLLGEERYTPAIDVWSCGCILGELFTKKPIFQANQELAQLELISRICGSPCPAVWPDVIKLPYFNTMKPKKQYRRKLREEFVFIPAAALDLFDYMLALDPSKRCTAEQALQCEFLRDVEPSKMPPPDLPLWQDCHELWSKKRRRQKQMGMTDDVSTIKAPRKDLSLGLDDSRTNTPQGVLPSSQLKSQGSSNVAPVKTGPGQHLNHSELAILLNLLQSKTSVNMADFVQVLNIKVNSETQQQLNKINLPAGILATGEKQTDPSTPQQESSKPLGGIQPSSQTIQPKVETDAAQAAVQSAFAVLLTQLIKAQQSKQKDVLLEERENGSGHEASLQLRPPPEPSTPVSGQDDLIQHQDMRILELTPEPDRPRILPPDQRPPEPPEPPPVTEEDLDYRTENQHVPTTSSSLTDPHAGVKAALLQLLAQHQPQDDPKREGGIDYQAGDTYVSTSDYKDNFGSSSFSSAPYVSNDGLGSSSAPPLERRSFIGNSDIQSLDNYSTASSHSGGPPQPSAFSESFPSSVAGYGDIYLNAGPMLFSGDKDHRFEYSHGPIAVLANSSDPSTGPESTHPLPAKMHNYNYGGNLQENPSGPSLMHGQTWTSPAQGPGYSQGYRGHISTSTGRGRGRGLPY
# T1 sequence (O75909 whole entry partner): as the sequence (O75909 whole entry partner) above
# Procedure, shortened: as §3
# [6] = test system: CDK12/13; test: Immunoblotting of CDK12 and CDK13 in HCC38 cells; format: cell-based, human; details: increasing concentrations, 15 h
# Procedure: as §1, §2
# [7] = MDA-MB-231 cells, 0.3 μM, 15 h, immunoblotting, normalized against α-tubulin
smiles,measurement,setting,value
"N#Cc1ccc(N[C@H]2CC[C@H](N(C(=O)NCc3ccccc3)c3ccc(N4CCN(C5CCN(c6cc7c(cc6F)C(=O)N(C6CCC(=O)NC6=O)C7=O)CC5)CC4)cc3)CC2)nc1 (some centres unmarked) [ZLC491, 3-Benzyl-1-((1r,4r)-4-((5-cyanopyridin-2-yl)amino)cyclohexyl)-1-(4-(4-(1-(2-(2,6-dioxopiperidin-3-yl)-6-fluoro-1,3-dioxoisoindolin-5-yl)piperidin-4-yl)piperazin-1-yl)phenyl)urea]",depletion of CDK12/13,[1],concentration-dependent manner
same,time at which significant reduction of CDK12/13 is observed,[2],≤ 4 h
same,"protein levels of DDR-relative proteins (BRCA1, RAD51, ATM)",[3],reduced
same,"Protein Degradation (%DMSO control, 0.3 μM) CDK12",[4]; [7],85%
same,DC50,"[4]; MDA-MB-231 cells, 15 h",32 nM
same,Degradation rates of CDK12 at 0.3 μM,"[4]; supplementary CSV, 0.3 μM",85%
same,"CDK13 degradation, immunoblotting of the proteomic samples","[5]; 2 μM, 8 h, MDA-MB-231",significantly degraded
same,"Protein Degradation (%DMSO control, 0.3 μM) CDK13",[5]; [7],90%
same,DC50,"[5]; MDA-MB-231 cells, 15 h",28 nM
same,Degradation rates of CDK13 at 0.3 μM,"[5]; supplementary CSV, 0.3 μM",90%
same,depletion of CDK12/13,[6],concentration-dependent manner

# — paper PMC11513923, “Discovery of ZLC491 as a Potent, Selective, and Orally Bioavailable CDK12/13 PROTAC Degrader” (Journal of Medicinal Chemistry, 2024)
